Measurements published in US10034886B2, “GLP-1 receptor modulators” (Celgene International II SÀRL, priority 2014, dated 2018).
Like-named read-outs stand apart in the source and are kept apart here.

Molecular target: T1, GLP-1R (Homo sapiens, UniProt P43220)
T1 construct: host or cells: GLP-1R CRE-bla CHO-K1 cells
Assay: EC20 GLP-1(9-36) PAM cAMP assay: dose response of compound in the presence of fixed concentration of GLP-1(9-36)
Type: cell-based
Details: GLP-1R CRE-bla CHO-K1 cells, read-out: EC20 GLP-1(9-36) PAM EC50
Method in brief: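 GLP-1R CRE-bla CHO-K1 cells treated 30 min at 37 °C with 12-point compound dose response plus fixed EC20 GLP-1(9-36), with IBMX, in HBSS/HEPES/0.1% BSA pH 7.4. Total cAMP measured by luminescent detection against standard curve; EC50 and Emax from non-linear regression.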

[1] = compound dose response with fixed concentration of GLP-1(9-36)
[2] = dose response of compound in presence of fixed concentration of GLP-1(9-36)

T1 sequence (P43220 24-463): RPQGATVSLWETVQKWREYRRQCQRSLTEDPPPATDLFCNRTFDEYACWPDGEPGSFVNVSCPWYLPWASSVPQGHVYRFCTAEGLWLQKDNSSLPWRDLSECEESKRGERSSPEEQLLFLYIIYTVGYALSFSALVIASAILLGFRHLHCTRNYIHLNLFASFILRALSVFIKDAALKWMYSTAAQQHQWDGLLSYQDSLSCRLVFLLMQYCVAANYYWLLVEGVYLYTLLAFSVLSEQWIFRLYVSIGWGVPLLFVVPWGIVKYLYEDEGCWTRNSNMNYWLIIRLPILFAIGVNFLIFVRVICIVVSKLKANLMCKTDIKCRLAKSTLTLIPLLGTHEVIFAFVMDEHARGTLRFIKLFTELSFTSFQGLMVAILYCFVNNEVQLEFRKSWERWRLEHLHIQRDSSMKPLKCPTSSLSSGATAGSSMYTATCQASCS
T1 sequence (P01275 100-127 partner limits assumed): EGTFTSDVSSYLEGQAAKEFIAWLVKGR

| SMILES | EC50 [1] [µM] | EC50 [2] [µM] |
| --- | --- | --- |
| CCc1ccc(C#Cc2cnc(-c3ccc(C[C@H](NC(=O)c4ccc(C(C)(C)C)s4)C(=O)N[C@H](C)C(=O)O)cc3)nc2)cc1 [Compound 1276] | 0.8 to 2.5 | – |
| C[C@@H](NC(=O)[C@H](Cc1ccc(-c2ncc(/C=C/c3ccc(F)cc3F)cn2)cc1)NC(=O)c1ccc(C(C)(C)C)s1)C(=O)O [Compound 1255] | 2.5 to 5 | – |
| CCCCCCCOc1ccc(-c2cnc(-c3ccc(C[C@@H](NC(=O)c4ccc(C(C)(C)C)cc4)C(=O)N[C@@H](C)C(=O)O)cc3)nc2)cc1 [Compound 436] | – | < 0.8 |
| CN(C)c1ccc(C2CCN(c3cnc(-c4ccc(CC(NC(=O)c5ccc(C(C)(C)C)s5)C(=O)N5CC(C(=O)O)C5)cc4)nc3)CC2)cc1 (stereo not shown) [Compound 1486] | 0.8 to 2.5 | – |
| CCC[C@H]1CC[C@H](C2CCN(c3cnc(-c4ccc(C[C@H](NC(=O)c5ccc(CC)s5)C(=O)N5CC(C(=O)O)C5)cc4)nc3)CC2)CC1 [Compound 1533] | < 0.8 | – |
| CCCCCCCOc1ccc(-c2cnc(-c3ccc(C[C@H](NC(=O)c4ccc(C(C)(C)C)s4)C(=O)NC(C(=O)O)C(O)c4cccnc4)cc3)nc2)cc1 (stereo partly shown) [Compound 907] | – | 0.8 to 2.5 |
| CCCCCCCc1noc(-c2cnc(-c3ccc(C[C@H](NC(=O)c4ccc(C(C)(C)C)cc4)C(=O)NCCC(=O)O)cc3)nc2)n1 [Compound 754] | – | 5 to 10 |
| CCCCCCCOc1ccc(-c2cnc(-c3ccc(C[C@H](NC(=O)Cc4ccc(OCCCC)cc4)C(=O)N4CCC[C@H]4C(=O)O)cc3)nc2)cc1 [Compound 1070] | – | 0.8 to 2.5 |
| CCOc1ccc(/C=C/c2cnc(-c3ccc(C[C@H](NC(=O)c4ccc(C(C)(C)C)s4)C(=O)N[C@H](C)C(=O)O)cc3)nc2)cc1 [Compound 1258] | 0.8 to 2.5 | – |
| CCCCCCCOc1ccc(-c2cnc(-c3ccc(CC(NC(=O)c4ccc(C(C)(C)C)s4)C(=O)N[C@@H](CCSC)C(=O)O)cc3)nc2)cc1 (stereo partly shown) [Compound 416] | – | < 0.8 |
| CCCCCCCOc1ccc(-c2cnc(-c3ccc(C[C@H](NC(=O)c4ccc(C(C)(C)C)s4)C(=O)N[C@@H](Cc4ccccn4)C(=O)O)cc3)nc2)cc1 [Compound 628] | – | 0.8 to 2.5 |
| CCC[C@H]1CC[C@H](c2ccc(-c3cnc(-c4ccc(C[C@H](NC(=O)c5ccc(C(C)(C)C)s5)C(=O)N5CC(C(=O)O)C5)cc4)nc3)cc2)CC1 [Compound 1343, 1-((S)-2-(5-(tert-butyl)thiophene-2-carboxamido)-3-(4-(5-(4-((1s,4r)-4-propylcyclohexyl)phenyl)pyrimidin-2-yl)phenyl)propanoyl)azetidine-3-carboxylic acid] | < 0.8 | – |
| CCCC1CCN(C(=O)C(C)(C)CNc2cnc(-c3ccc(C[C@H](NC(=O)c4ccc(C(C)(C)C)s4)C(=O)N4CC(C(=O)O)C4)cc3)nc2)CC1 [Compound 1497] | 2.5 to 5 | – |
| CCCCCCOc1ccc(-c2cnc(-c3ccc(C[C@H](NC(=O)c4ccc(C(C)(C)C)cc4)C(=O)N[C@H](C)C(=O)O)cc3)nc2)cc1 [Compound 719] | – | 0.8 to 2.5 |
| CCCCCCCOc1ccc(-c2cnc(-c3ccc(C[C@H](NC(=O)c4ccc(C(C)(C)C)cc4)C(=O)N[C@@H](CC(=O)Nc4nnn[nH]4)C(=O)O)cc3)nc2)cc1 [Compound 510] | – | 2.5 to 5 |
| CCCCCCCOc1ccc(-c2cnc(-c3ccc(C[C@H](NC(=O)c4ccc(C(C)(C)C)s4)C(=O)N[C@@H](Cn4cncn4)C(=O)O)cc3)nc2)cc1 [Compound 639] | – | < 0.8 |
| CCCCCCCOc1ccc(-c2cnc(-c3ccc(C[C@H](NC(=O)c4ccc(OCC)cc4)C(=O)N4CC(C(=O)O)C4)cc3)nc2)cc1 [Compound 1114] | – | 0.8 to 2.5 |
| CCCCCCCOc1ccc(-c2cnc(-c3ccc(C[C@H](NC(=O)c4ccc(C(C)(C)C)s4)C(=O)NC(CCCC(=O)O)C(=O)O)cc3)nc2)cc1 (stereo partly shown) [Compound 633] | – | 0.8 to 2.5 |
| C[C@@H](NC(=O)[C@H](Cc1ccc(-c2ncc(/C=C/c3cc(F)cc(F)c3)cn2)cc1)NC(=O)c1ccc(C(C)(C)C)s1)C(=O)O [Compound 1256] | 5 to 10 | – |

| SMILES | EC50 [1] [µM] | EC50 [2] [µM] |
| --- | --- | --- |
| CCCCCCCOc1ccc(-c2cnc(-c3ccc(C[C@H](NC(=O)c4ccc(C(C)(C)C)cc4)C(=O)NCC(Cc4cccnc4)C(=O)O)cc3)nc2)cc1 (stereo partly shown) [Compound 557] | – | < 0.8 |
| CCCCCCCOc1c(C)cc(-c2cnc(-c3ccc(C[C@H](NC(=O)c4ccc(C(C)(C)C)cc4)C(=O)NCCC(=O)O)cc3)nc2)cc1C [Compound 705] | – | 0.8 to 2.5 |
| CCCCCCCOc1cc(C)c(-c2cnc(-c3ccc(C[C@H](NC(=O)c4ccc(C(C)(C)C)s4)C(=O)N[C@H](C)C(=O)O)cc3)nc2)c(C)c1 [Compound 791] | – | 0.8 to 2.5 |
| CCCCCCCOc1ccc(-c2cnc(-c3ccc(C[C@H](NC(=O)c4ccc(C(C)(C)C)cc4)C(=O)N4C[C@H](O)C[C@H]4C(=O)O)cc3)nc2)cc1 [Compound 491] | – | < 0.8 |
| CCCCOc1cc(-c2cnc(-c3ccc(C[C@H](NC(=O)c4ccc(C(C)(C)C)s4)C(=O)N[C@H](C)C(=O)O)cc3)nc2)cc(Cl)c1OC(C)C [Compound 1039] | – | 0.8 to 2.5 |
| CCCCCCCOc1ccc(-c2cnc(-c3ccc(C[C@H](NC(=O)c4ccc(OCC)cc4)C(=O)N[C@H](C)C(=O)O)cc3)nc2)cc1 [Compound 818] | – | 0.8 to 2.5 |
| CCCCCCCOc1ccc(-c2cnc(-c3ccc(C[C@H](NC(=O)c4ccc(C(C)(C)C)s4)C(=O)N4CC(N(C)C)C4)cc3)nc2)cc1 [Compound 976] | – | 2.5 to 5 |
| CCCCCCCOc1ccc(-c2cnc(-c3ccc(C[C@H](NC(=O)c4ccc(C(C)(C)C)cc4)C(=O)N[C@@H](Cc4cnn(C)c4)C(=O)O)cc3)nc2)cc1 [Compound 576] | – | 0.8 to 2.5 |
| CCCCCCCOc1ccc(-c2cnc(-c3ccc(CC(NC(=O)c4ccc(C(C)(C)C)s4)C(=O)NCCCCCC(=O)O)cc3)nc2)cc1 (stereo not shown) [Compound 460] | – | 5 to 10 |
| CCCCCCCOc1ccc(-c2cnc(-c3ccc(C[C@H](NC(=O)c4ccc(C(C)(C)C)s4)C(=O)NCC4CCNC4)cc3)nc2)cc1 (stereo partly shown) [Compound 390] | – | 0.8 to 2.5 |
| CCCCCCCOc1ccc(-c2cnc(-c3ccc(C[C@H](NC(=O)c4ccc(C(C)(C)C)s4)C(=O)Nc4ccc(C(F)(F)F)cc4)cc3)nc2)cc1 [Compound 965] | – | 5 to 10 |
| CCC[C@H]1CC[C@H](N2CCN(c3cnc(-c4ccc(C[C@H](NC(=O)c5ccc(C(C)(C)C)s5)C(=O)N5CC(C(=O)O)C5)cc4)nc3)CC2)CC1 [Compound 1435] | 0.8 to 2.5 | – |
| Cc1cccc(Oc2ccc(-c3cnc(-c4ccc(C[C@H](NC(=O)c5ccc(C(C)(C)C)s5)C(=O)N[C@H](C)C(=O)O)cc4)nc3)cn2)c1 [Compound 1016] | – | 5 to 10 |
| C[C@@H](NC(=O)[C@H](Cc1ccc(-c2ncc(-c3ccc(C4=CCC(C)(C)CC4)cc3)cn2)cc1)NC(=O)c1ccc(C(C)(C)C)s1)C(=O)O [Compound 1150] | – | < 0.8 |
| CCC[C@H]1CC[C@H](C2CCN(c3cnc(-c4ccc(C[C@H](NC(=O)c5ccc(C(C)(C)C)s5)C(=O)N[C@@H](CN)C(=O)O)cc4)nc3)CC2)CC1 [Compound 1472] | < 0.8 | – |
| CCC[C@H]1CC[C@H](C2CCN(c3cnc(-c4ccc(C[C@H](NC(=O)c5ccc(C(C)(C)C#N)cc5)C(=O)N5CC(C(=O)O)C5)cc4)nc3)CC2)CC1 [Compound 1526] | < 0.8 | – |
| CCCCCCCOc1ccc(-c2cnc(-c3ccc(C[C@H](NC(=O)c4ccc(C(C)(C)C)s4)C(=O)N[C@@H](CC(=O)O)C(=O)NCC(N)=O)cc3)nc2)cc1 [Compound 530] | – | < 0.8 |
| CCCCCCCc1ccc(-c2cnc(-c3ccc(C[C@H](NC(=O)c4ccc(C(C)(C)C)s4)C(=O)N4CC[C@H](C(=O)O)C4)cc3)nc2)cc1 [Compound 765] | – | 0.8 to 2.5 |
